According to patent publication US6967205B1, “Compounds with antibacterial and antiparasitic properties” (New Pharma Research Sweden AB, priority 1999, dated 2005):
Converted amounts (≈) assume the structure as drawn.

Legend:
Bacillus cereus = assay: M.I.C. by broth dilution method (NCCLS 1988), gram-positive bacteria; format: cell-based; conditions: in vitro broth dilution
In short: (§1)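 MIC values were obtained by broth dilution following NCCLS 1988 against gram-positive strains including Bacillus subtilus ATCC 6633, Streptococcus faecium and Staphylococcus ATCC 6538. Enrofloxacin served as reference. Compound stocks were 1 000 μg/ml in aqueous KOH or KOH/DMF.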

[1] = tested on: Staphylococcus (ATCC 6538); assay: as above; format: cell-based; conditions: ATCC6538, in vitro broth dilution, read-out: M.I.C. values Staph. (ATCC 6538)
In short: as §1

[2] = tested on: Staph. aureus (ATCC 29737); assay: as above; format: cell-based; conditions: Staphylococcus aureus, ATCC29737, in vitro broth dilution
In short: as §1

[3] = tested on: Bacillus subtilus (ATCC 6633); assay: as above; format: cell-based; conditions: ATCC6633, in vitro broth dilution
In short: as §1

Streptococcus faecium = assay: as above; format: cell-based; conditions: Enterococcus faecium, in vitro broth dilution, read-out: M.I.C. values Streptoc. faecium
In short: as §1

[4] = tested on: Staph. epidermidis (ATCC 12228); assay: as above; format: cell-based; conditions: Staphylococcus epidermidis, ATCC12228, in vitro broth dilution
In short: as §1

[5] = tested on: Micrococcus Luteus (ATCC 9341); assay: as above; format: cell-based; conditions: ATCC9341, in vitro broth dilution, read-out: M.I.C. values Microc. Luteus
In short: as §1

gram-positive bacteria = assay: Antibacterial activity against gram-positive bacteria, overall comparison with enrofloxacin; format: cell-based; conditions: seven gram-positive strains of Table 6
Protocol: (§2) The antibacterial activity of the present compounds was investigated by in vitro evaluation of their M.I.C. (Minimum Inhibitory Concentration) values. The evaluation was conducted in complete accordance with the “Broth dilution method”, as outlined by the U.S. National Committee for Clinical Laboratory Standards “NCCLS 1988”.
(§3) Solutions of the present compounds were prepared by dissolving 0.01 g of a test compound in either 10% KOH (aq) or a 10% KOH/DMF mixture, after which sterile, distilled H2O was added up to a total volume of 10 ml, thereby yielding a test compound concentration of 1 000 μg/ml.
In this evaluation, the antibacterial activity of the present compounds and enrofloxacin as reference compound was tested against seven strains of gram-positive bacteria, namely Bacillus subtilus (ATCC 6633), Bacillus cereus, Streptococcus faecium, Micrococcus Luteus (ATCC 9341), Staph. aureus (ATCC 29737), Staph. epidermidis (ATCC 12228) and Staphylococcus (ATCC 6538).

[6] = tested on: gram-negative bacteria (E. coli, KL. Pnemonia, Bordetella bronchiseptic, Salmonella typhi, Salmonella spp., Proteus spp., Pasterulla Duck, Pasterulla Camel); assay: M.I.C. by broth dilution method, gram-negative bacteria; format: cell-based; conditions: eleven gram-negative strains
Protocol: as §2, §3
In the same manner as above, the M.I.C. values of the present compounds JA 3, JA 5, JA 12, JA 42, JA 73 and enrofloxacin as reference compound were investigated also on gram-negative bacteria. The gram-negative bacteria used were E. coli (ATCC 25922), E. Coli (ATCC 8739), E. Coli (ATCC 10536), E. Coli Pathogenic, KL. Pnemonia (ATCC 10031), Bordetella bronchiseptic (ATCC 4617), Salmonella typhi, Salmonella spp., Proteus spp., Pasterulla Duck and Pasterulla Camel.

M. gallisepticum = assay: M.I.C. against Mycoplasma in microtitre plates (Tanner and Wu); format: cell-based; conditions: Mycoplasmoides gallisepticum; in vitro, microtitre plates
Protocol: The M.I.C. values of the compounds JA 1, JA 3, JA 5, JA 12, JA 42 and JA 43 were determined in vitro against M. gallisepticum. Enrofloxacin, tylosin and oxytetracyclin were used as reference compounds. The tested compounds were all stored and applied as solutions in distilled water. The M.I.C. evaluation was performed in microtitre plates, and the methodology employed was basically that of Tanner and Wu (Avian Disease, 36:714-717 (1992)).

[7] = tested on: E. mitis, E. hagani, E. praecox, E. acervulina, E. maxima, E. necatrix, E. tenella and E. brunetti; assay: Prophylactic anticoccidial effect in chickens of Arbor Aker breed (8 Eimeria strains); format: in vivo; conditions: 100 ppm in feed from day 3, infected day 7
Protocol: JA 12, JA 39 and JA 42 was also evaluated in chickens of Arbor Aker breed. These trials were conducted by using basically the same test protocol as that used for the chickens of Habbared X breed, albeit with the following modifications:
• i) On day 3 after hatch, the tested groups of chickens received feed containing 100 ppm of JA 12, JA 39, JA 42 or Coxistac (60 ppm); • ii) On day 7 after hatch, the chickens were infected orally by oocysts containing a mixture of 8 mature sporulated strains, namely E. mitis, E. hagani, E. praecox, E. acervulina, E. maxima, E. necatrix, E. tenella and E. brunetti.

[8] = tested on: Eimeria acervulina, E. maxima, E. necatrix, E. tenella and E. brunetti; assay: Prophylactic anticoccidial activity in chickens of Habbared X breed (5 Eimeria strains); format: in vivo; conditions: for anticoccidial effect (in words): chickens of Habbared X breed, 100 ppm in feed; for Average number of Eimeria spp. oocysts/g faeces, day after hatch 14: day 14 after hatch; for Average number of Eimeria spp. oocysts/g faeces, day after hatch 14 / Average number of Eimeria spp. oocysts/g faeces, day after hatch 15 / Average number of Eimeria spp. oocysts/g faeces, day after hatch 16 / Average number of Eimeria spp. oocysts/g faeces, day after hatch 17 / Average number of Eimeria spp. oocysts/g faeces, day after hatch 18 / Average number of Eimeria spp. oocysts/g faeces, day after hatch 19 / Average number of Eimeria spp. oocysts/g faeces, day after hatch 21 / Mean body weight / Mean amount of feed consumed / Average number of Eimeria spp. oocysts/g faeces, Total: drug in feed (JA 39, JA 42 100 ppm; Coxistac 60 ppm); for Average number of Eimeria spp. oocysts/g faeces, day after hatch 14 / Average number of Eimeria spp. oocysts/g faeces, day after hatch 15 / Average number of Eimeria spp. oocysts/g faeces, day after hatch 16 / Average number of Eimeria spp. oocysts/g faeces, day after hatch 17 / Average number of Eimeria spp. oocysts/g faeces, day after hatch 18 / Average number of Eimeria spp. oocysts/g faeces, day after hatch 19 / Average number of Eimeria spp. oocysts/g faeces, day after hatch 21: infected day 10; for Average number of Eimeria spp. oocysts/g faeces, day after hatch 15: day 15 after hatch; for Average number of Eimeria spp. oocysts/g faeces, day after hatch 16: day 16 after hatch; for Average number of Eimeria spp. oocysts/g faeces, day after hatch 17: day 17 after hatch; for Average number of Eimeria spp. oocysts/g faeces, day after hatch 18: day 18 after hatch; for Average number of Eimeria spp. oocysts/g faeces, day after hatch 19: day 19 after hatch; for Average number of Eimeria spp. oocysts/g faeces, day after hatch 21: day 21 after hatch; for Mean body weight: final weight; for Mean body weight / Mean amount of feed consumed: infected chickens; for Mean amount of feed consumed: mean total feed per bird; for Average number of Eimeria spp. oocysts/g faeces, Total: total of days 14-21 after hatch
Protocol: The anticoccidial activity of the present compounds as prophylactic agents was evaluated in vivo on […] one day old (1 day after hatch) chickens of Habbared X breed. The chickens were divided into four groups of 20 birds each, and each group was located in a separate pen (1 m×1 m). The chickens were then fed with unmedicated food up to day 7 after hatch. Fresh water was supplied ad libitum .
On day 8 after hatch, the four groups were fed as follows (1 ppm=1 mg drug/kg feed): • Group #1: feed containing JA 39 (100 ppm); • Group #2: feed containing JA 42 (100 ppm); • Group #3: feed containing Coxistac (60 ppm), a known anticoccidial agent (see U.S. Pat. No. 3,857,948);
Group #4: feed containing no drug (control group).
The chickens were fed as above on day 8 and 9 after hatch. On day 10 after hatch, each chicken was infected orally by 6 000-7 000 oocysts containing a mixture of 5 mature sporulated strains, namely Eimeria acervulina, E. maxima, E. necatrix, E. tenella and E. brunetti. The groups #1-3 received drug as above from day 10 to 21 after hatch.
From day 14 to 21 after hatch, fresh fecal droplets were collected and examined daily. The average number of oocysts/g faeces was then calculated in accordance with the so-called Mc-Master technique (Soulsby, E. J., Helminths, Arthropods & Protozoa of domesticated animals, p. 789, 6th Ed., Williams & Wilkins Co. Baltimore (USA), Tindall & Cassell Ltd., London, 1968). The final weight of and mean total amount of feed consumed by each bird were also examined, and the results are summarized in Table 8 hereinbelow.

| SMILES | MIC (Bacillus cereus) [µg/mL] | MIC [1] [µg/mL] | MIC [2] [µg/mL] | MIC [3] [µg/mL] | MIC (Streptococcus faecium) [µg/mL] | MIC [4] [µg/mL] | MIC [5] [µg/mL] | antibacterial activity against gram-positive bacteria compared to that of enrofloxacin (gram-positive bacteria) | antibacterial activity against gram-negative bacteria compared to that of enrofloxacin [6] | MIC (M. gallisepticum) [µg/mL] | prophylactic anticoccidial effect (in words) [7] | anticoccidial effect (in words) [8] | Average number of Eimeria spp. oocysts/g faeces, day after hatch 14 [8] [oocysts/g faeces] | Average number of Eimeria spp. oocysts/g faeces, day after hatch 15 [8] [oocysts/g faeces] | Average number of Eimeria spp. oocysts/g faeces, day after hatch 16 [8] [oocysts/g faeces] | Average number of Eimeria spp. oocysts/g faeces, day after hatch 17 [8] [oocysts/g faeces] | Average number of Eimeria spp. oocysts/g faeces, day after hatch 18 [8] [oocysts/g faeces] | Average number of Eimeria spp. oocysts/g faeces, day after hatch 19 [8] [oocysts/g faeces] | Average number of Eimeria spp. oocysts/g faeces, day after hatch 21 [8] [oocysts/g faeces] | Mean body weight [8] [g] | further results |
| --- | --- | --- | --- | --- | --- | --- | --- | --- | --- | --- | --- | --- | --- | --- | --- | --- | --- | --- | --- | --- | --- |
| COc1ccc(S(=O)(=O)N2CCN(c3cc4c(cc3F)c(=O)c(C(=O)O)cn4C3CC3)CC2)cc1 [JA 4, 1-cyclopropyl-6-fluoro-7-{4-[(4-methoxyphenyl)sulfonyl]-1-piperazinyl}-4-oxo-1,4-dihydro-3-quinolinecarboxylic acid] | 0.01 (≈ 0.0199 µM) | 0.01 (≈ 0.0199 µM) | 0.06 (≈ 0.12 µM) | 0.01 (≈ 0.0199 µM) | 0.06 (≈ 0.12 µM) | 0.03 (≈ 0.0598 µM) | 0.25 (≈ 0.498 µM) | clearly superior | – | – | – | – | – | – | – | – | – | – | – | – | – |
| O=C(O)c1cn(C2CC2)c2cc(N3CCN(S(=O)(=O)C(F)(F)F)CC3)c(F)cc2c1=O [JA 12, 1-cyclopropyl-6-fluoro-4-oxo-7-{4-[(trifluoromethyl)sulfonyl]-1-piperazinyl}-1,4-dihydro-3-quinolinecarboxylic acid] | 0.06 (≈ 0.129 µM) | 0.03 (≈ 0.0647 µM) | 0.12 (≈ 0.259 µM) | 0.12 (≈ 0.259 µM) | 1 (≈ 2.16 µM) | 0.12 (≈ 0.259 µM) | 0.5 (≈ 1.08 µM) | – | roughly equal to that of enrofloxacin | 0.12 (≈ 0.259 µM) | very similar to that of JA 39 | – | – | – | – | – | – | – | – | – | – |
| O=C(O)c1cn(C2CC2)c2cc(N3CCN(c4cncc(Cl)n4)CC3)c(F)cc2c1=O [JA 39, 7-[4-(6-chloro-2-pyrazinyl)-1-piperazinyl]-1-cyclopropyl-6-fluoro-4-oxo-1,4-dihydro-3-quinolinecarboxylic acid] | 0.01 (≈ 0.0225 µM) | 0.03 (≈ 0.0676 µM) | 0.12 (≈ 0.27 µM) | 0.06 (≈ 0.135 µM) | 0.25 (≈ 0.563 µM) | 0.01 (≈ 0.0225 µM) | 1 (≈ 2.25 µM) | clearly superior | – | – | essentially the same as those reported for the trials with the chickens of Habbared X breed | excellent anticoccidial effect | 0.0 | 4000 | 5000 | 3000 | 0.0 | 0.0 | 0.0 | 68.2 | Mean amount of feed consumed [8]: 81 g; Average number of Eimeria spp. oocysts/g faeces, Total [8]: 12000 oocysts/g faeces |
| O=C(O)c1cn(C2CC2)c2cc(N3CCN(c4cccc(Cl)n4)CC3)c(F)cc2c1=O [JA 42, 7-[4-(6-chloro-2-pyridinyl)-1-piperazinyl]-1-cyclopropyl-6-fluoro-4-oxo-1,4-dihydro-3-quinolinecarboxylic acid] | 0.06 (≈ 0.135 µM) | 0.06 (≈ 0.135 µM) | 0.03 (≈ 0.0677 µM) | 0.01 (≈ 0.0226 µM) | 0.25 (≈ 0.564 µM) | 0.008 (≈ 0.0181 µM) | 1 (≈ 2.26 µM) | – | roughly equal to that of enrofloxacin | 0.25 (≈ 0.564 µM) | essentially the same as those reported for the trials with the chickens of Habbared X breed | excellent anticoccidial effect | 0.0 | 4000 | 6000 | 3000 | 0.0 | 0.0 | 0.0 | 73.7 | Mean amount of feed consumed [8]: 91 g; Average number of Eimeria spp. oocysts/g faeces, Total [8]: 13000 oocysts/g faeces |
